Measured values published in US4426371A, “Novel N-hydroxyalkylated dicarboxylic acid bis(3,5-dicarbamoyl-2,4,6-triiodoanilides), as X-ray contrast media” (Schering, Aktiengesellschaft, priority 1980, dated 1984).

What was measured:
[1] = Osmotic pressure of aqueous contrast media solution; format: physicochemical; settings: 300 mg I/ml
Excerpt: (§1) It was surprising that, per this invention, a comparatively minor chemical modification of the class of compounds described in DOS No. 2,628,517 (U.S. Pat. No. 4,239,747) would lead to a significant improvement in compatibility and to an increase in solubility. This can be seen from Table I wherein the compound A of this invention (malonic acid bis[3,5-bis(1,3-dihydroxyisopropylcarbamoyl)-2,4,6-triiodo-N-2-hydroxyethylanilide]) is compared with respect to osmotic pressure, viscosity, and compatibility with oxalic acid bis[3,5-bis(2,3-dihydroxypropyl-N-methylcarbamoyl)-2,4,6-triiodo-anilide] (B), as well as with iopamidol (5-[α-hydroxypropionyl-amino]-2,4,6-triiodoisopthalic acid bis[1,3-dihydroxyisopropyl-amide]) and metrizamide [2-(3-acetamido-2,4,6-triiodo-5-[N-methylacetamido]benzamido)-2-deoxy-D-glucose)].
(§2) Osmotic Pressure, Viscosity, and Compatibility of Nonionic
(§3) Contrast Media of Different Chemical Structure as an Aqueous
(§4) Solution (Concentration: 300 mg I/ml)

[2] = Viscosity of aqueous contrast media solution; format: physicochemical; settings: 300 mg I/ml
Excerpt: as §1, §2, §3, §4

Rat = assay: Compatibility: LD50 (Rat) upon i.v. injection; format: in vivo; settings: rate 2 ml/min, aqueous solution 300 mg I/ml
Protocol: as §2, §3, §4
Pressure Viscosity (g Iodine/kg Body

[3] = for angiography and myelography; background; cited from earlier work

Compound: CN(CC(O)CO)C(=O)c1c(I)c(NC(=O)C(=O)Nc2c(I)c(C(=O)N(C)CC(O)CO)c(I)c(C(=O)N(C)CC(O)CO)c2I)c(I)c(C(=O)N(C)CC(O)CO)c1I (centres unmarked) [B, oxalic acid bis[3,5-bis(2,3-dihydroxypropyl-N-methylcarbamoyl)-2,4,6-triiodo-anilide]]
- Osmotic Pressure 37° C. [1]: 4.3 atm
- Viscosity 37° C. [2]: 13.7 cp
- LD50 (Rat) upon i.v. Injection (Rat): 13 g Iodine/kg Body Weight

Compound: O=C(NC(CO)CO)c1c(I)c(C(=O)NC(CO)CO)c(I)c(N(CCO)C(=O)CC(=O)N(CCO)c2c(I)c(C(=O)NC(CO)CO)c(I)c(C(=O)NC(CO)CO)c2I)c1I [A, malonic acid bis[3,5-bis(1,3-dihydroxyisopropylcarbamoyl)-2,4,6-triiodo-N-2-hydroxyethylanilide]]
- Osmotic Pressure 37° C. [1]: 7.2 atm
- Viscosity 37° C. [2]: 6.8 cp
- LD50 (Rat) upon i.v. Injection (Rat): more than 30 g Iodine/kg Body Weight

Compound: C[C@H](O)C(=O)Nc1c(I)c(C(=O)NC(CO)CO)c(I)c(C(=O)NC(CO)CO)c1I [Iopamidol, 5-[α-hydroxypropionyl-amino]-2,4,6-triiodoisopthalic acid bis[1,3-dihydroxyisopropyl-amide]]
- Osmotic Pressure 37° C. [1]: 15.7 atm
- Viscosity 37° C. [2]: 4.7 cp
- LD50 (Rat) upon i.v. Injection (Rat): 12 g Iodine/kg Body Weight
- concentrated, radiopaque solutions not hypertonic to blood or other body fluid [3]: it has not been possible to prepare solutions sufficiently concentrated and radiopaque

Compound: CC(=O)Nc1c(I)c(C(=O)N[C@H]2C(O)O[C@H](CO)[C@@H](O)[C@@H]2O)c(I)c(N(C)C(C)=O)c1I (some centres unmarked) [Metrizamide]
- Osmotic Pressure 37° C. [1]: 12.3 atm
- Viscosity 37° C. [2]: 6.2 cp
- LD50 (Rat) upon i.v. Injection (Rat): 12 g Iodine/kg Body Weight
- concentrated, radiopaque solutions not hypertonic to blood or other body fluid [3]: it has not been possible to prepare solutions sufficiently concentrated and radiopaque
